Experimental findings from ChEMBL document CHEMBL1143927, “Investigation of novel 7,8-disubstituted-5,10-dihydro-dibenzo[b,e][1,4]diazepin-11-ones as potent Chk1 inhibitors” (Bioorg Med Chem Lett, 2008) are described below.

Test [1] deals with T1, Serine/threonine-protein kinase Chk1 (Homo sapiens, UniProt O14757).
T1 sequence (O14757 whole entry): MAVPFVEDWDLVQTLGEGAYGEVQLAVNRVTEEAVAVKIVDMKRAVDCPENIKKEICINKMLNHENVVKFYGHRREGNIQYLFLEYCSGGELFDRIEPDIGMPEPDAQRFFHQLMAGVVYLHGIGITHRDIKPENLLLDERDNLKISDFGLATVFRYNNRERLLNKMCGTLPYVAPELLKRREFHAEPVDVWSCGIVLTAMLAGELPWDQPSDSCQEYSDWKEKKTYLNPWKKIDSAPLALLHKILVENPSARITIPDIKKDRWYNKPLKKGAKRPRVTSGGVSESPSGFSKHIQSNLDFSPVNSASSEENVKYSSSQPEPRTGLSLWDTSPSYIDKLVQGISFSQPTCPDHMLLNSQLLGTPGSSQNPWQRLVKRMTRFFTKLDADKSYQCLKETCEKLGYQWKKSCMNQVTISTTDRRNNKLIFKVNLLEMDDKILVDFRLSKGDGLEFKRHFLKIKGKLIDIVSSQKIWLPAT
Nature of the test: Inhibition of human Chk1 in H1299 cells assessed as blockade of Cdc25A degradation. In kind it is cell-based.

The test system of the next test is HeLa. In words: Antiproliferative activity against human HeLa cells after 48 hrs by MTS assay. In kind it is functional, cell-based.
Test [2] can be described thus: Cell cycle arrest in human H1299 cells assessed as accumulation at G2/M phase by FACS. It is filed as functional, cell-based. The conditions noted are these: NCI-H1299.
Test [3] concerns the target T1, Serine/threonine-protein kinase Chk1. In words: Inhibition of recombinant Chk1.

For `COc1cc2c(cc1OCc1csc(C)n1)Nc1cc(-c3ccc([N+](=O)[O-])c(OC)c3)ccc1C(=O)N2`, the EC50 in test [1] is > 10000 nM; in the test with HeLa, > 59000 nM; in test [2], > 10000 nM. Besides, the IC50 in test [3] came out at 4 nM.

For the molecule `COc1cc2c(cc1O)Nc1cc(-c3ccc([N+](=O)[O-])c(OC)c3)ccc1C(=O)N2`, the values for the EC50 (in test [1]; with HeLa; in test [2]) were 70 nM, > 59000 nM and > 10000 nM, respectively. Besides, the IC50 in test [3] stood at 0.9 nM.

As to `COc1cc2c(cc1OCc1ccccc1C(F)(F)F)Nc1cc(-c3ccc([N+](=O)[O-])c(OC)c3)ccc1C(=O)N2`, the 50% effective concentration (EC50) with HeLa is > 59000 nM; in test [2], > 10000 nM. For the same molecule, the IC50 in test [3] came to 1050 nM.

Regarding `COc1cc(-c2ccc3c(c2)Nc2ccccc2NC3=O)ccc1[N+](=O)[O-]`, in the test with HeLa, it took 47700 nM to reach a half-maximal effect (EC50).

Turning to `COC(=O)CCc1cc2c(cc1OC)NC(=O)c1ccc(-c3ccc([N+](=O)[O-])c(OC)c3)cc1N2`, the EC50 is > 10000 nM in test [1], > 59000 nM in the test on HeLa and > 10000 nM in test [2]. The IC50 in test [3] was found to be 22 nM.

With `COc1cc2c(cc1OCCCCO)Nc1cc(-c3ccc([N+](=O)[O-])c(OC)c3)ccc1C(=O)N2`, the figures for the EC50 (in test [1]; in the test with HeLa; in test [2]) were 2000 nM, > 59000 nM and > 10000 nM, respectively. Besides, the IC50 in test [3] came out at 0.7 nM.

On to `CCc1cc2c(cc1OC)Nc1cc(-c3ccc([N+](=O)[O-])c(OC)c3)ccc1C(=O)N2`, for which the EC50 in test [1] is 350 nM; in the test on HeLa it was 4500 nM; in test [2], > 10000 nM. Moreover, in test [3], the IC50 was determined as 9 nM.

With `COc1cc2c(cc1CC(C)(C)O)Nc1cc(-c3ccc([N+](=O)[O-])c(OC)c3)ccc1C(=O)N2`, the EC50 in test [1] is 40 nM; in the test with HeLa, > 59000 nM; in test [2] it was 1800 nM. The IC50 in test [3] worked out at 3.4 nM.

For `COc1cc2c(cc1OCCO)Nc1cc(-c3ccc([N+](=O)[O-])c(OC)c3)ccc1C(=O)N2`, the 50% effective concentration (EC50) in test [1] was 3100 nM; in the test with HeLa, > 59000 nM; in test [2], > 10000 nM. In test [3], the IC50 was determined as 0.58 nM.

As to `COc1cc2c(cc1C(=O)N(C)C)NC(=O)c1ccc(-c3ccc([N+](=O)[O-])c(OC)c3)cc1N2`, the EC50 is 3500 nM in test [1], 45000 nM in the test with HeLa and > 10000 nM in test [2]. In test [3], the IC50 was 15.5 nM.

Turning to `COc1cc2c(cc1CCCO)NC(=O)c1ccc(-c3ccc([N+](=O)[O-])c(OC)c3)cc1N2`, the 50% effective concentration (EC50) in test [1] is 220 nM; with HeLa, 22000 nM; in test [2], 4300 nM. Moreover, the IC50 in test [3] was found to be 1.9 nM.

For `COc1cc2c(cc1CCc1ccncc1)Nc1cc(-c3ccc([N+](=O)[O-])c(OC)c3)ccc1C(=O)N2`, the EC50 in test [1] is 2100 nM; in the test with HeLa it was 9600 nM; in test [2], > 10000 nM. Further, the IC50 in test [3] worked out at 16.2 nM.

For `COc1cc2c(cc1CCC(C)(C)O)Nc1cc(-c3ccc([N+](=O)[O-])c(OC)c3)ccc1C(=O)N2`, the figures for the EC50 (in test [1]; in the test on HeLa; in test [2]) were 600 nM, > 59000 nM and > 10000 nM, respectively. Further, the IC50 in test [3] is 4 nM.

For `COc1cc2c(cc1OC)Nc1cc(-c3ccc([N+](=O)[O-])c(OC)c3)ccc1C(=O)N2`, the EC50 in test [1] was 280 nM; in the test with HeLa, > 59000 nM; in test [2], > 10000 nM. Besides, the concentration for half-maximal inhibition (IC50) in test [3] was 0.6 nM.

For `COCCOCCOc1cc2c(cc1OC)NC(=O)c1ccc(-c3ccc([N+](=O)[O-])c(OC)c3)cc1N2`, the EC50 is 3100 nM in test [1], 52000 nM in the test with HeLa and > 10000 nM in test [2]. In test [3], the IC50 was 3.1 nM.

Regarding `COc1cc2c(cc1CCC(=O)N(C)C)Nc1cc(-c3ccc([N+](=O)[O-])c(OC)c3)ccc1C(=O)N2`, the values for the 50% effective concentration (EC50) (in test [1]; in the test with HeLa; in test [2]) were 50 nM, > 59000 nM and > 10000 nM, respectively. Further, the IC50 in test [3] turned out to be 7.9 nM.

Take `COc1cc2c(cc1OCC1CCCCO1)Nc1cc(-c3ccc([N+](=O)[O-])c(OC)c3)ccc1C(=O)N2` (stereo not drawn): the half-maximal effective concentration (EC50) came to 200 nM in test [1], 2000 nM in the test with HeLa and 2400 nM in test [2]. The IC50 in test [3] amounted to 4.8 nM.

`COc1cc2c(cc1OCCN1CCOCC1)Nc1cc(-c3ccc([N+](=O)[O-])c(OC)c3)ccc1C(=O)N2`: the 50% effective concentration (EC50) in test [1] came out at 200 nM; in the test with HeLa, 2000 nM; in test [2] it was 2400 nM. In test [3], the IC50 was found to be 8.1 nM.

With `COc1cc2c(cc1OCCCN)Nc1cc(-c3ccc([N+](=O)[O-])c(OC)c3)ccc1C(=O)N2`, the EC50 is 2600 nM in test [1], 17300 nM with HeLa and > 10000 nM in test [2]. Besides, the IC50 in test [3] was 0.98 nM.

In the case of `COc1cc2c(cc1CCCO)Nc1cc(-c3ccc([N+](=O)[O-])c(OC)c3)ccc1C(=O)N2`, the results for the EC50 (in test [1]; in the test on HeLa; in test [2]) were 1500 nM, > 59000 nM and > 10000 nM, respectively. Moreover, in test [3], the IC50 was determined as 2.6 nM.

Regarding `COc1cc2c(cc1CCO)Nc1cc(-c3ccc([N+](=O)[O-])c(OC)c3)ccc1C(=O)N2`, the EC50 was 900 nM in test [1], > 59000 nM with HeLa and > 10000 nM in test [2]. The IC50 in test [3] turned out to be 3.5 nM.

On to `COC(=O)c1cc2c(cc1OC)Nc1cc(-c3ccc([N+](=O)[O-])c(OC)c3)ccc1C(=O)N2`, for which the EC50 in test [1] is > 10000 nM; in the test on HeLa, > 59000 nM; in test [2], > 10000 nM. In addition, the IC50 in test [3] stood at 11.2 nM.

Turning to `COc1cc2c(cc1OCc1ccncc1)Nc1cc(-c3ccc([N+](=O)[O-])c(OC)c3)ccc1C(=O)N2`, the figures for the concentration giving a half-maximal response (EC50) (in test [1]; with HeLa; in test [2]) were 50 nM, > 59000 nM and > 10000 nM, respectively. The IC50 in test [3] was found to be 6.8 nM.
